Reference: ChEMBL document CHEMBL4138154, “Conformationally rigid derivatives of WAY-267,464: Synthesis and pharmacology at the human oxytocin and vasopressin-1a receptors” (Eur J Med Chem, 2018)

Legend:
Vasopressin V1a receptor [1] = molecular target: T1, Vasopressin V1a receptor (Homo sapiens, UniProt P37288); test: Agonist activity at human vasopressin V1a receptor expressed in HEK293 cells assessed as induction of IP1 accumulation after 1 hr by HTRF assay; type: functional, cell-based
Oxytocin receptor [2] = molecular target: T2, Oxytocin receptor (Homo sapiens, UniProt P30559); test: Displacement of [3H]-oxytocin from human OTR expressed in HEK293 cell membranes after 90 mins by radioligand binding assay
T2 sequence (P30559 whole entry): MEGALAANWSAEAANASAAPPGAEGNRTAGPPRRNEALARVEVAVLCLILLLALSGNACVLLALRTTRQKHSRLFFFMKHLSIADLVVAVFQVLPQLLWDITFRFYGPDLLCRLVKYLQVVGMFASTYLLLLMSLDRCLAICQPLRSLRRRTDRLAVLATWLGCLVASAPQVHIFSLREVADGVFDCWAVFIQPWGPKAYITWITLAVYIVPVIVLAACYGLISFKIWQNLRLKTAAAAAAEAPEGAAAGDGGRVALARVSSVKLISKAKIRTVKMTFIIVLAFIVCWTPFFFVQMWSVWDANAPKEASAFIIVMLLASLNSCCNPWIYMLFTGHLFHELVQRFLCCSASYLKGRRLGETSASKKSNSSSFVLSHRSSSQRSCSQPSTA

Vasopressin V1a receptor [3] = molecular target: T1, Vasopressin V1a receptor; test: Antagonist activity at human vasopressin V1a receptor expressed in HEK293 cells assessed as inhibition of vasopressin-induced IP1 accumulation preincubated for 30 mins followed by vasopressin addition measured after 1 hr by HTRF assay; type: functional, cell-based
Vasopressin V1a receptor [4] = molecular target: T1, Vasopressin V1a receptor; test: Displacement of [3H]-vasopressin from human vasopressin V1a receptor expressed in HEK293 cell membranes after 90 mins by radioligand binding assay
Oxytocin receptor [5] = molecular target: T2, Oxytocin receptor; test: Antagonist activity at human OTR expressed in HEK293 cells assessed as inhibition of agonist-induced IP1 accumulation preincubated for 30 mins followed by agonist addition measured after 1 hr by HTRF assay; type: functional, cell-based
Oxytocin receptor [6] = molecular target: T2, Oxytocin receptor; test: Agonist activity at human OTR expressed in HEK293 cells assessed as induction of IP1 accumulation after 1 hr by HTRF assay; type: functional, cell-based

T1 sequence (P37288 whole entry): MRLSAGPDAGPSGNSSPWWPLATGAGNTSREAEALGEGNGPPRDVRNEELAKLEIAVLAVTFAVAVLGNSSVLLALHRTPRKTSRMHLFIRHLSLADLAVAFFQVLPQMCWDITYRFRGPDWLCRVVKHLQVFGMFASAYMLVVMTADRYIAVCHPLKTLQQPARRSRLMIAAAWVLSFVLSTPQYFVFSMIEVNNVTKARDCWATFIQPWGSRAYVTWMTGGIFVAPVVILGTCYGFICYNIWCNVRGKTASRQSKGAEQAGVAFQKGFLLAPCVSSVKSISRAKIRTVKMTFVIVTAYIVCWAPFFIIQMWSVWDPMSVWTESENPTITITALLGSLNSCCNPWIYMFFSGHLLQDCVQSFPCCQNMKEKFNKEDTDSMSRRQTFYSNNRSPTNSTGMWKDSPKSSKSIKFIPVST

| Structure (SMILES) | EC50 (Vasopressin V1a receptor [1]) | Ki (Oxytocin receptor [2]) | IC50 (Vasopressin V1a receptor [3]) | Ki (Vasopressin V1a receptor [4]) | IC50 (Oxytocin receptor [5]) | EC50 (Oxytocin receptor [6]) |
| --- | --- | --- | --- | --- | --- | --- |
| COc1cc(CN2CCN(c3ccccc3CCC(=O)N3Cc4cnn(C)c4Nc4ccccc43)CC2)cc(OC)c1 | > 10 µM | > 10 µM | > 10 µM | 1060 nM | > 10 µM | > 10 µM |
| COc1cc(CN2CCN(c3cccc(CCC(=O)N4Cc5cnn(C)c5Nc5ccccc54)c3)CC2)cc(OC)c1 | > 10 µM | > 10 µM | > 10 µM | 3340 nM | > 10 µM | > 10 µM |
| Cn1ncc2c1Nc1ccccc1N(C(=O)Cc1cccc(N3CCN(Cc4cc(O)cc(O)c4)CC3)c1)C2 | > 10 µM | > 10 µM | > 10 µM | 643 nM | > 10 µM | > 10 µM |
| COc1cc(CN2CCN(c3cccc(CC(=O)N4Cc5cnn(C)c5Nc5ccccc54)c3)CC2)cc(OC)c1 | > 10 µM | > 10 µM | > 10 µM | 2100 nM | > 10 µM | > 10 µM |
| Cn1ncc2c1Nc1ccccc1N(C(=O)CCc1ccccc1N1CCN(Cc3cc(O)cc(O)c3)CC1)C2 | > 10 µM | > 10 µM | > 10 µM | 251 nM | > 10 µM | > 10 µM |
| Cn1ncc2c1Nc1ccccc1N(C(=O)CCc1ccc(N3CCN(Cc4cc(O)cc(O)c4)CC3)cc1)C2 | > 10 µM | > 10 µM | > 10 µM | 1760 nM | > 10 µM | > 10 µM |
| COc1cc(CN2CCN(c3ccc(CCC(=O)N4Cc5cnn(C)c5Nc5ccccc54)cc3)CC2)cc(OC)c1 | > 10 µM | > 10 µM | > 10 µM | 6250 nM | > 10 µM | > 10 µM |
| Cn1ncc2c1Nc1ccccc1N(C(=O)Cc1ccccc1N1CCN(Cc3cc(O)cc(O)c3)CC1)C2 | > 10 µM | > 10 µM | > 10 µM | 1940 nM | > 10 µM | > 10 µM |
| COc1cc(CN2CCN(c3ccc(CC(=O)N4Cc5cnn(C)c5Nc5ccccc54)cc3)CC2)cc(OC)c1 | > 10 µM | > 10 µM | > 10 µM | 1910 nM | > 10 µM | > 10 µM |
| Cn1ncc2c1Nc1ccccc1N(C(=O)Cc1ccc(N3CCN(Cc4cc(O)cc(O)c4)CC3)cc1)C2 | > 10 µM | > 10 µM | > 10 µM | 795 nM | > 10 µM | > 10 µM |
| COc1cc(CN2CCN(c3ccccc3CC(=O)N3Cc4cnn(C)c4Nc4ccccc43)CC2)cc(OC)c1 | > 10 µM | > 10 µM | > 10 µM | 6810 nM | > 10 µM | > 10 µM |
| Cn1ncc2c1Nc1ccccc1N(C(=O)CCc1cccc(N3CCN(Cc4cc(O)cc(O)c4)CC3)c1)C2 | > 10 µM | > 10 µM | > 10 µM | 874 nM | > 10 µM | > 10 µM |
